Tested on: Plasmodium berghei
Test: Luciferase/luciferin-expressing antifolate-resistant parasites were used to infect a culture of HepG2 cells that were pre-incubated with compounds. Infected hepatocytes emit light due to the luciferase reaction. Assay results are presented as the percent inhibition of light emission compared to control. […]
Assay type: functional
Settings: sporozoite; for IC90: read-out: LUCIFERASE INFECTION ASSAY - IC90
[1] = read-out: LUCIFERASE INFECTION ASSAY - IC50

Row | SMILES | IC90 [µM] | IC50 [1] [µM] | further results
1 | CN(C)CCCOc1ccc(-c2cn3c(-c4ccc5ncccc5c4)cnc3cn2)cn1 | 7.35 |  | IC50 (HEPG2TOX_HILL_SLOPE 9.84, HEPG2TOX_R_SQUARED 0.59, PBLUC_HILL_SLOPE 45.1, PBLUC_R_SQUARED 0.189, read-out: LUCIFERASE INFECTION ASSAY - IC50): 7 µM
2 | COc1ccccc1OCCNC(=O)c1cc(C2CC2)nc2c1cnn2C(C)C | > 10 |  | IC50 (FFLUC_HILL_SLOPE 16.8, FFLUC_R_SQUARED 0.0713, HEPG2TOX_HILL_SLOPE 2.22, HEPG2TOX_R_SQUARED 0.212, read-out: LUCIFERASE INFECTION ASSAY - IC50): > 10 µM
3 | O=C(Nc1ncccc1OCc1ccc(Cl)c(Cl)c1)c1cc(Cl)cc(Cl)c1 | > 7.46 |  | IC50 (FFLUC_HILL_SLOPE 11.8, FFLUC_R_SQUARED 0.202, PBLUC_HILL_SLOPE 16.7, PBLUC_R_SQUARED 0.189, read-out: LUCIFERASE INFECTION ASSAY - IC50): > 7.46 µM
4 | CC1=C/C(=N\NC(=O)c2ccc(Br)cc2)CC(C)(C)C1 | > 10 |  | IC50 (PBLUC_HILL_SLOPE 2.58, PBLUC_R_SQUARED 0.715, read-out: LUCIFERASE INFECTION ASSAY - IC50): 6.68 µM
5 | O=C(NC1CC1)c1ccc(CN(C2CC2)S(=O)(=O)c2cccc3c2N=S=N3)cc1 | > 10 | > 10 | 
6 | S=C(N/N=C\c1cccc2ccccc12)Nc1cccc(Cl)c1Cl | > 8.82 | > 8.82 | 
7 | S=C(NCC1CCCO1)c1c(-c2ccccc2)c2c3n(c(COc4ccccc4)nn13)CCCC2 (centres undefined) | 9.41 |  | IC50 (FFLUC_HILL_SLOPE 2.32, FFLUC_R_SQUARED 0.306, HEPG2TOX_HILL_SLOPE 7.94, HEPG2TOX_R_SQUARED 0.0665, PBLUC_HILL_SLOPE 11.7, PBLUC_R_SQUARED 0.258, read-out: LUCIFERASE INFECTION ASSAY - IC50): 7.8 µM
8 | COc1ccc(/C=C2\N=C(SCc3cn4ccsc4n3)N(c3cc(C)cc(C)c3)C2=O)cc1 | > 10 |  | IC50 (HEPG2TOX_HILL_SLOPE 2.87, HEPG2TOX_R_SQUARED 0.677, PBLUC_HILL_SLOPE 15.6, PBLUC_R_SQUARED 0.508, read-out: LUCIFERASE INFECTION ASSAY - IC50): 9.65 µM
9 | C[C@H]1O[C@@H](O[C@H]2[C@@H](O)C[C@H](O[C@H]3[C@@H](O)C[C@H](O[C@H]4CC[C@@]5(C)[C@H](CC[C@@H]6[C@@H]5C[C@@H](O)[C@]5(C)[C@@H](C7=CC(=O)OC7)CC[C@]65O)C4)O[C@@H]3C)O[C@@H]2C)C[C@H](O)[C@@H]1O [DIGOXIN] | 0.117 | 0.0489 | 
10 | Cc1csc(C(C#N)C(=O)CSc2nnc(Nc3ccc(OC(F)(F)F)cc3)s2)n1 (centres undefined) | > 10 |  | IC50 (PBLUC_HILL_SLOPE 2.13, PBLUC_R_SQUARED 0.0111, read-out: LUCIFERASE INFECTION ASSAY - IC50): 7.36 µM
11 | CCOc1ccc(S(=O)(=O)N(Cc2nnc(-c3cccs3)o2)c2ccccc2OC)cc1 | > 10 |  | IC50 (HEPG2TOX_HILL_SLOPE 1.67, HEPG2TOX_R_SQUARED 0.357, PBLUC_HILL_SLOPE 2.18, PBLUC_R_SQUARED 0.1, read-out: LUCIFERASE INFECTION ASSAY - IC50): 6.59 µM
12 | O=C1C(=O)N(Cc2cccc(Cl)c2)c2c1cccc2C(F)(F)F | 6.09 |  | IC50 (HEPG2TOX_HILL_SLOPE 13.2, HEPG2TOX_R_SQUARED 0.969, PBLUC_HILL_SLOPE 2.5, PBLUC_R_SQUARED 0.616, read-out: LUCIFERASE INFECTION ASSAY - IC50): 2.53 µM
13 | O=C(CSc1nnnn1-c1ccccc1)N1N=C2/C(=C/c3ccc(F)cc3)CCCC2C1c1ccc(F)cc1 (centres undefined) | > 10 |  | IC50 (FFLUC_HILL_SLOPE 14.4, FFLUC_R_SQUARED 0.768, PBLUC_HILL_SLOPE 7.48, PBLUC_R_SQUARED 0.336, read-out: LUCIFERASE INFECTION ASSAY - IC50): 8.21 µM
14 | Cc1ccc(-c2nnc(SCC(=O)Nc3ccccc3C(=O)NCc3ccccc3)[nH]2)cc1 | > 10 | > 10 | 
15 | COc1cc(-c2cnc3cnc(-c4cccc(NS(C)(=O)=O)c4)cn23)cc(OC)c1OC | 6.6 |  | IC50 (HEPG2TOX_HILL_SLOPE 7.03, HEPG2TOX_R_SQUARED 0.532, PBLUC_HILL_SLOPE 3.63, PBLUC_R_SQUARED 0.378, read-out: LUCIFERASE INFECTION ASSAY - IC50): 3.61 µM
16 | CC(Nc1ccc(C(N)=O)cc1[N+](=O)[O-])C12CC3CC(CC(C3)C1)C2 (centres undefined) | > 10 | 5.52 | 
17 | Cc1ccc(Nc2ccc(-c3nc4ccccc4[nH]3)cn2)cc1C | 4.25 |  | IC50 (HEPG2TOX_HILL_SLOPE 3.79, 0.829, HEPG2TOX_R_SQUARED 0.701, 0.968, PBLUC_HILL_SLOPE 2.85, 14.2, PBLUC_R_SQUARED 0.393, 0.513, read-out: LUCIFERASE INFECTION ASSAY - IC50): 2.27 µM
18 | O=S(=O)(/C=C/c1ccccc1)N1CCSc2ccc(Cl)cc21 | 4.27 |  | IC50 (HEPG2TOX_HILL_SLOPE 12.6, HEPG2TOX_R_SQUARED 0.499, PBLUC_HILL_SLOPE 12.6, PBLUC_R_SQUARED 0.783, read-out: LUCIFERASE INFECTION ASSAY - IC50): 3.58 µM
19 | CCC(=O)c1ccc(OCC(=O)N(C)C2CCc3ccccc32)cc1 (centres undefined) | > 10 | > 10 | 
20 | CCCNC(=O)c1c(NC(=O)c2ccc(F)c(F)c2F)nc2ccccn12 | > 8.77 |  | IC50 (HEPG2TOX_HILL_SLOPE 5.13, HEPG2TOX_R_SQUARED 0.252, PBLUC_HILL_SLOPE 2.06, PBLUC_R_SQUARED 0.791, read-out: LUCIFERASE INFECTION ASSAY - IC50): 6.47 µM
21 | Cc1ccc(N/N=C/c2c3ccccc3cc3ccccc23)cc1Cl | 5.87 |  | IC50 (HEPG2TOX_HILL_SLOPE 1.41, HEPG2TOX_R_SQUARED 0.742, PBLUC_HILL_SLOPE 1.25, PBLUC_R_SQUARED 0.657, read-out: LUCIFERASE INFECTION ASSAY - IC50): 1.01 µM

Row | SMILES | IC90 [µM] | IC50 [1] [µM] | further results
22 | Cc1nn(-c2nc3ccccc3s2)c2c1C(c1cc(Br)c(O)c(Br)c1)C1C(=O)CCCC1=N2 (centres undefined) | > 10 |  | IC50 (FFLUC_HILL_SLOPE 9.07, FFLUC_R_SQUARED 0.197, PBLUC_HILL_SLOPE 1.11, PBLUC_R_SQUARED 0.592, read-out: LUCIFERASE INFECTION ASSAY - IC50): 4.69 µM
23 | CCN(CC)CCNC(=O)c1ccc(Nc2ccn3nc(-c4ccc(Cl)cc4)cc3n2)cc1 | > 7.13 | > 7.13 | 
24 | CCCN(CCC(=O)Nc1cccc(Cl)c1)CC1CC1 | > 11.2 | > 11.2 | 
25 | COc1ccc(CCC(=O)NNC(=O)c2ccc3ccccc3n2)cc1Br | 5.65 |  | IC50 (PBLUC_HILL_SLOPE 3.11, PBLUC_R_SQUARED 0.471, read-out: LUCIFERASE INFECTION ASSAY - IC50): 2.79 µM
26 | N#Cc1ccc(Sc2c(Cl)cccc2Cl)c(NC(=O)c2cccc(Cl)c2)c1 | > 7.61 |  | IC50 (PBLUC_HILL_SLOPE 1.82, PBLUC_R_SQUARED 0.326, read-out: LUCIFERASE INFECTION ASSAY - IC50): 6.05 µM
27 | CCOc1cc(CNCc2nc3ccccc3[nH]2)ccc1OCc1cccs1 | > 10 |  | IC50 (HEPG2TOX_HILL_SLOPE 15, HEPG2TOX_R_SQUARED 0.655, PBLUC_HILL_SLOPE 1.7, PBLUC_R_SQUARED 0.452, read-out: LUCIFERASE INFECTION ASSAY - IC50): 4.17 µM
28 | Cc1ccc(-c2nnc(N/N=C3/C=C(c4ccccc4)C(O)(c4ccccc4)C3)c3ccccc23)cc1C (centres undefined) | > 10 |  | IC50 (FFLUC_HILL_SLOPE 18, FFLUC_R_SQUARED 0.659, PBLUC_HILL_SLOPE 2.04, PBLUC_R_SQUARED 0.344, read-out: LUCIFERASE INFECTION ASSAY - IC50): 6.48 µM
29 | COc1ccc(C(=O)Nc2ccc3nc(-c4ccccc4)nn3c2)cc1OC | > 10 | > 10 | 
30 | CCN1CCN(C(=O)C23CC4CC(C2)CC(c2ccc(C)cc2)(C4)C3)CC1 | > 10 | > 10 | 
31 | COc1ccccc1NCC(=O)N/N=C1/C(=O)Nc2ccc(C(C)C)cc21 | > 10 | > 10 | 
32 | NC(=O)NC(CC(=O)Nc1ccc2c(c1)-c1ccccc1C2)c1ccccc1 (centres undefined) | > 10 |  | IC50 (HEPG2TOX_HILL_SLOPE 11.3, HEPG2TOX_R_SQUARED 0.75, PBLUC_HILL_SLOPE 2.98, PBLUC_R_SQUARED 0.106, read-out: LUCIFERASE INFECTION ASSAY - IC50): 6.7 µM
33 | Fc1ccc(Nc2n[nH]c(=S)s2)cc1 | > 14.5 | > 14.5 | 
34 | Cc1ccc(C)c(-n2nnnc2SCC(=O)Nc2nc(-c3ccccn3)cs2)c1 | > 10 |  | IC50 (PBLUC_HILL_SLOPE 1.88, PBLUC_R_SQUARED 0.631, read-out: LUCIFERASE INFECTION ASSAY - IC50): 5.63 µM
35 | COc1cc(C(=O)NCC(c2ccco2)N2CCCCC2)ccc1Oc1ccc(Cl)cc1[N+](=O)[O-] (centres undefined) | > 10 | 5.95 | 
36 | Nc1ncc(-c2ccc(F)c(Cl)c2)cc1-c1cccc(O)c1 | > 10.5 | > 10.5 | 
37 | Cc1c(C(=O)Nc2ccnn2Cc2ccccc2)cnn1C(C)(C)C | > 10 |  | IC50 (PBLUC_HILL_SLOPE 2.67, PBLUC_R_SQUARED 0.113, read-out: LUCIFERASE INFECTION ASSAY - IC50): > 10 µM
38 | Cc1noc(C)c1S(=O)(=O)N1CCCN(C(=O)c2cc3c(s2)-c2ccccc2CC3)CC1 | > 10 |  | IC50 (PBLUC_HILL_SLOPE 2.04, PBLUC_R_SQUARED 0.622, read-out: LUCIFERASE INFECTION ASSAY - IC50): 4.56 µM
39 | NC(CCc1ccccc1)c1csc(NC(=O)Nc2ccccc2-c2ccccc2)n1 (centres undefined) | 7.05 |  | IC50 (PBLUC_HILL_SLOPE 12.2, PBLUC_R_SQUARED 0.388, read-out: LUCIFERASE INFECTION ASSAY - IC50): 5.88 µM
40 | CCC(=O)N1CCC1(C)C(=O)NCc1ccc2c(c1)OCO2 (centres undefined) | > 10.8 | > 10.8 | 
41 | COC(=O)c1cc(C#N)c(SCC(=O)c2ccc(Cl)cc2)nc1C(OC)OC | > 7.84 | > 7.84 | 
42 | CC(=O)N1CCc2cc(NC(=O)CNc3ccc(C)cc3C)ccc21 | > 10 | > 10 | 
